“And” between values parts separate entries of the source, which are not always exact repeats. Equal values may be shown once. Bridge positions count the residues as written; N and C are the ends. Square brackets hold non-standard residues; d marks the D form. Trp(5-F) = N[C@@H](Cc1c[nH]c2ccc(F)cc12)C(=O)O

Data set [1] can be described thus: Histopathological analysis of eyes after intravitreal injection. It is filed as in vivo, New Zealand White rabbits. As for the experimental part: Histopathological Analysis: After examination, animals were euthanized and eyes were enucleated, fixed in Davidson's solution, sectioned and H/E stained. Sections from both eyes of animals receiving 25, 50, or 100 μg/eye of compound (Table 2, last three animals) were examined by an American Board of Pathology-certified pathologist, and peer-reviewed by a board-certified and recognized expert veterinary pathologist.
Five animals in this study were also processed for histopathological evaluation. The eyes were evaluated by two pathologists. […] The cornea, iris, ciliary body, lens, sclera, retina, and vitreous were all normal.

Data set [2] can be described thus: Intravitreal administration to non-human primates: deposit formation and compound content (Example 1). It is filed as in vivo. To be noted: Cynomolgus monkey, IVT 150 μg/eye, from 4 hours to 2 weeks post administration. The method, then:
Two different formulations were manufactured by dissolving the compound into water for injection at different concentrations: (i) 0.299 mg/mL, designated LD and (ii) 4.51 mg/mL, designated as HD and filter sterilizing through a Millipore Durapore 47 mm 0.22 μm filter. The liquid compositions were dispensed into individual vials (250 μl each). The pH of the LD composition was 5.48 while that of the HD composition was 6.0.
During studies involving intravitreal administration of the compstatin analog whose synthesis was described above (SEQ ID NO: 32) in water for injection to non-human primates it was observed that the compound has the ability to form gel-like, approximately spheroidal intravitreal deposits in the primate (Cynomolgus monkey) eye following intravitreal injection. […]
(§1) At necropsy, in the majority of male animals (10 of 12) that had been dosed with compound IVT at 150 μg/eye, gel-like spheroidal intravitreal deposits were observed upon dissection of the eye. These deposits were isolated and analyzed for the presence of the compound.
The deposits were analyzed for drug content, and drug content was observed and measured using HPLC.

Data set [3] in a line: Indirect ophthalmoscope exam in dose-ranging study for vitreous deposits formation. It counts as in vivo, New Zealand White rabbits. More on the design: key to Indirect Exam Vit.: 0: Clear, no deposits, bubbles, or haziness detectable; 1: Light haziness, no opaque deposits or vitreous opacity; 2: Moderate opacity or opaque bubble or deposit; 3: Pronounced vitreal opacity; 4: Opaque; key to Indirect Exam Retina: 0: Flat, no mars, blisters or blemishes; 1: Not flat; has wrinkles, bumps, or ripples; 2: Minor inflammation or bleeding; 3: Retinal detachment, moderate hemorrhage; 4: Destruction of retinal tissue (GA, CNV, retinal tear). The conditions noted are these: NZW rabbit; for Indirect Exam Retina / Indirect Exam Vit.: 27 hours after treatment. As for the experimental part:
The study examined the ability of compound in amounts ranging from 0 to 200 μg/eye (0, 25, 50, 75, 100, 125, 150,175, 200 μg) to form deposits in the eye following intravitreal injection (Table 2). Each concentration was injected into three eyes. Thirteen animals were used for dose-ranging. Five additional animals were used for histological analysis.
Injection Procedures: Intravitreal injections were administered using a 0.5 cc tuberculin syringe (with permanently attached 29 G ½ inch needle); 0.2 ml of compound solution was withdrawn from the vial. Excess liquid was expelled, so that the syringe contained only the necessary volume of liquid for a single injection (50 μl). The eye was kept open using an eye lid speculum. The needle was inserted in the supero-temporal quadrant, through an area 3.5-4.0 mm posterior to the limbus, avoiding the horizontal meridian and aiming toward the center of the eye. Only half (¼ inch) of the needle total length (½ inch) was inserted into the eye. The injection volume was delivered slowly to prevent a rapid increase in intraocular pressure. To ensure that all the solution is in the eye and to avoid push-back through the injection site, the needle was removed slowly.
Ophthalmic Examinations: All animals received an ophthalmic exam (indirect ophthalmoscope) by a practicing clinical ophthalmologist prior to sacrifice.

Data set [4] is described as follows: Further studies of deposits, serum and vitreous concentration after intravitreal injection (Example 3). It counts as in vivo, Cynomolgus monkeys. As for the experimental part:
In one study, Cynomolgus monkeys were administered 0, 150, 450, 1050, or 2100 μg of compound in 50 μl WFI by intravitreal injection.
Some of the animals that had been administered 0, 450, 1050, or 2100 μg were sacrificed, and compound concentration in serum and vitreous was measured 14 days following administration. Compound measurement was performed using HPLC. […] When administered at concentrations too low to form a deposit, the compound is cleared from the Cynomolgus vitreous with a T1/2 of about 22 hours. Therefore, it is evident that the compound measured in this experiment after 2 weeks must reflect release from the deposit rather than residual compound that was never present in the deposit.
The study was continued to evaluate behavior of the deposits over time. […] There was evidence that they were diminishing in size and/or density at the 6 month time point. […] The deposits could be observed both by ophthalmoscopic examination and ultrasound. They appeared to continue diminishing in size and/or split into multiple smaller deposits over time.
The deposits were undetectable using these techniques by approximately 1 week following dosing.

Data set [5] in a line: Ocular safety examinations after intravitreal injection (Example 1). It counts as in vivo. The conditions noted are these: Cynomolgus monkey. As for the experimental part: During studies involving intravitreal administration of the compstatin analog whose synthesis was described above (SEQ ID NO: 32) in water for injection to non-human primates it was observed that the compound has the ability to form gel-like, approximately spheroidal intravitreal deposits in the primate (Cynomolgus monkey) eye following intravitreal injection. […] The high dose consisted of the intravitreal (IVT) injection of an estimated dose of 150 μg of compound in a volume of 50 μL water for injection while the low dose consisted of an estimated dose of 3 μg of compound in a volume of 50 μL water for injection.
as §1

A further data set has as its system complement activation. The conditions noted are these: relative to compstatin amidated at the C-terminus; based on published data; cited from earlier work.

Take `CC[C@H](C)[C@H](NC(C)=O)C(=O)N[C@H]1CSSC[C@@H](C(=O)N[C@H](C(N)=O)[C@@H](C)O)NC(=O)[C@H](CCCNC(=N)N)NC(=O)[C@H](Cc2cnc[nH]2)NC(=O)[C@H](C)NC(=O)CNC(=O)[C@H](Cc2c[nH]c3ccccc23)NC(=O)[C@H](CC(=O)O)NC(=O)[C@H](CCC(N)=O)NC(=O)[C@H](Cc2cn(C)c3ccccc23)NC(=O)[C@H](C(C)C)NC1=O` [Ac-V4(1-MeW)/H9A, Ac-ICV(1-methyl-W)QDWGAHRCT-CONH2]: the “Histopathological evaluation of eyes” value in data set [1] (NZW rabbit, single-dose IVT 25, 50 and 100 μg/eye, two pathologists) is reported as “all the evaluated eyes were normal”. In addition, the “Adverse effects attributable to the deposits” value in data set [1] (rabbit studies, histopathology and physical examination) was “No adverse effects attributable to the deposits were observed”; in data set [4] (monkey studies, histopathology and physical examination), “No adverse effects attributable to the deposits were observed”. Also, the “Compound in the vitreous” value in data set [2] is listed as “presence of the compound at all time points examined”. In addition, the “Indirect Exam Retina” value in data set [3] (25 μg/eye IVT in 50 μl), in data set [3] (50 μg/eye IVT in 50 μl), in data set [3] (75 μg/eye IVT in 50 μl), in data set [3] (100 μg/eye IVT in 50 μl), in data set [3] (125 μg/eye IVT in 50 μl) and in data set [3] (150 μg/eye IVT in 50 μl) was 0 each time. In addition, the “Indirect Exam Retina” value in data set [3] (175 μg/eye IVT in 50 μl) was 2 and 0; in data set [3] (200 μg/eye IVT in 50 μl), 0. Moreover, the “Indirect Exam Vit.” value in data set [3] (25 μg/eye IVT in 50 μl) was 1; in data set [3] (50 μg/eye IVT in 50 μl) it was 2 and 1; in data set [3] (75 μg/eye IVT in 50 μl), 1 and 2; in data set [3] (100 μg/eye IVT in 50 μl), 2 and 3; in data set [3] (125 μg/eye IVT in 50 μl), 1; in data set [3] (150 μg/eye IVT in 50 μl), 2 and 1. The “Indirect Exam Vit.” value in data set [3] (175 μg/eye IVT in 50 μl) was 2 and 1 and 4; in data set [3] (200 μg/eye IVT in 50 μl) it was 1. Further, the “Pathological changes on indirect ophthalmoscopic exam” value in data set [3] (IVT 25-200 μg/eye) is reported as “did not reveal any pathological changes”. The “Eyes with vitreous haze” value in data set [3] (IVT, did not correlate strongly with dose) is listed as 9 of the 32. For the same compound, the “Continued release based on serum samples” value in data set [4] (Cynomolgus monkey, IVT 450, 1050, 2100 μg, up to 1 year) was “continued release of compstatin analog occurred during this time”. In addition, in data set [4] (Cynomolgus monkeys, 14 days following IVT 450, 1050 or 2100 μg), the “Serum concentration relative to vitreal concentration at the same dose” value is recorded as “approximately 100 fold lower”. For the same compound, in data set [4] (Cynomolgus monkeys, IVT 450, 1050 or 2100 μg, serum and vitreous HPLC at 14 days), the “Duration of release from intravitreal deposits” value is “at least two weeks”. Further, in data set [4] (cynomolgus monkey, other: intravitreal injection, Cynomolgus vitreous, concentrations too low to form a deposit, read-out: T1/2 of clearance from the vitreous (converted)), the half-life is approximately 22 h. Besides, the “Adverse reactions caused by compound within the vitreous cavity” value in data set [5] (IVT 3 or 150 μg/eye) is reported as “no evidence that the compound within the vitreous cavity caused any apparent adverse reactions”. Also, the ERG values entry in data set [5] (IVT 3 or 150 μg/eye) is reported as “within normal limits”. For the same compound, the “Tonometry, intraocular pressure” value in data set [5] (IVT 3 or 150 μg/eye) is reported as “no drug-related changes in intraocular pressure”. Besides, the “Vitreal haze, binocular indirect ophthalmoscopy” value in data set [5] (day 2, IVT 3 μg/eye) is “diffuse vitreal haze in the right eye of one animal”; in data set [5] (day 2, IVT 150 μg/eye) it was “four animals”. In data set [5] (days 2 and 15 following IVT administration), the “Slit lamp examinations of the anterior segment of the eye” value is “no abnormalities”. Also, in data set [5] (with or without intravitreal deposits), the “Histopathology of the eyes” value is “no drug-related abnormalities were observed”.
On to “Ac-ICV(5fW)QD(5fW)GAHRCT-CONH2 (Ac-ICV[Trp(5-F)]QD[Trp(5-F)]GAHRCT-NH2; disulfide 2-12) [Ac-V4(5fW)/W7(5fW)/H9A]”, for which the Activity over compstatin with complement activation was 161× more.

(Values after patent US20110182877A1, “SUSTAINED DELIVERY OF COMPSTATIN ANALOGS FROM GELS” (POTENTIA PHARMACEUTICALS, INC., priority 2007, published 2011).)
